Experimental data as given in patent publication US5703092A, “Hydroxamic acid compounds as metalloprotease and TNF inhibitors” (The DuPont Merck Pharmaceutical Company, priority 1996, dated 1997).

How the values were obtained:
[1] = Ex Vivo Assay for Bioavailability of MMP-3 Inhibitors (plasma level after dosing); assay type: in vivo; details: rat, po; rats, dosed orally at 100 mg/kg; plasma level read via MMP-3 inhibition against a spiked plasma standard curve
Procedure: Ex Vivo Assay for Bioavailability of MMP-3 Inhibitors
Blood was collected by cardiac puncture from rats at different times after dosing I.V., I.P., or P.O. with compound in order to determine the levels of inhibitor present. Plasma was extracted with 10% TCA in 95% methanol, and placed on ice for 10 minutes. The plasma was then centrifuged for 15 minutes at 14,000 rpm in an Eppendorf microcentrifuge. The supernatant was removed, recentrifuged, and the resulting supernatant was diluted 1:10 in 50 mM tricine, pH 8.5. The pH of the sample was adjusted to 7.5, and then assayed in the MMP-3 substance P fluorescent enzymatic assay. Plasma from naive rats was extracted by the same method and used as a negative control. This plasma was also used to prepare a spiked plasma curve of the compound of interest. Known concentrations of the compound were added to control plasma, the plasma was extracted by the same method, and then assayed in the MMP-3 enzymatic assay. A standard curve was prepared that related percent inhbition in the MMP-3 assay to the concentration of drug added in the spiked samples. Based on the percent inhibition in the presence of plasma from dosed rats, the concentration of compound was determined using the standard curve.

truncated MMP-3 = experiment: Bisacetylated Substance P/MMP-3 Fluorescent Assay; assay type: biochemical; details: bisacetylated substrate with MMP-3
From the text: Bisacetylated Substance P/MMP-3 Fluorescent Assay
A high capacity enzymatic assay was developed to detect potential inhibitors of MMP-3. The assay uses a derivative of a peptide substrate, substance P (Arg-Pro-Lys-Pro-Gln-Gln-Phe-Phe-Gly-Leu-Met), which is cleaved by MMP-3 exclusively at the glutamine-phenylalanine bond. In order to adapt this assay for high throughput screening, we have developed a fluorimetric method of product detection. The production of the hydrolysis product, substance P 7-11, is measured by reaction with fluorescamine, a fluorogenic compound which reacts with the primary amine of this fragment. The substance P substrate is bisacetylated to block the primary amines of the intact substrate. Thus, the resulting fluorescence represents generation of product (7-11 peptide) formed upon cleavage by MMP-3, and is quantitated using a standard curve prepared with known concentrations of 7-11 peptide.
To evaluate inhibition of MMP-3, compounds were prepared at a concentration of 10 mM in 100% methanol, and then further diluted to a 20× molar stock. Five microliters of each drug stock was added to the assay in the presence of 20 nM truncated MMP-3 in 67.5 mM tricine (pH 7.5), 10 mM CaCl2, 40 mM NaCl, and 0.005% Brij 35 in a final volume of 100 microliters. Bisacetylated substance P ([…]) was added, and the assay was run for 1 hour at 25° C. […]

Chain of truncated MMP-3 (P08254 100-272 limits assumed): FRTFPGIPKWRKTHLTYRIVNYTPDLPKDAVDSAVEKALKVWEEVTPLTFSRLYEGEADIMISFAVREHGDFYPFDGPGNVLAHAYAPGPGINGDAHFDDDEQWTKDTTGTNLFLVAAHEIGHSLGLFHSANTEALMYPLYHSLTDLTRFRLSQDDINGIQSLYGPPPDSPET

Row | Cmax [1] | Km (truncated MMP-3) | Compound | Vmax (truncated MMP-3)
1 | 960 nM | – | CC(C)C[C@@H](C(=O)N[C@H](c1nc2cc(Cl)ccc2[nH]1)C(C)(C)C)[C@H](O)C(=O)NO [Example 86, N-[1(S)-(5-chloro-2-benzimidazolyl)-2,2,2-trimethylethyl]-[3-(N-hydroxyaminocarbonyl)-3(S)-hydroxy-2(R)-isobutyl]propanamide] | –
2 | – | 769 ± 52 µM | bisacetylated substrate: bisacetylated derivative of peptide substrate substance P (Arg-Pro-Lys-Pro-Gln-Gln-Phe-Phe-Gly-Leu-Met), cleaved by MMP-3 | 0.090±0.003 nmoles 7-11 peptide/min
